Assay results as given in patent US20230265151A1, “GIP/GLP1 CO-AGONIST COMPOUNDS” (priority 2020, published 2023).
Like-named read-outs stand apart in the source and are kept apart here.

Experiments:
[1] = molecular target: hGLP-1R (Homo sapiens, UniProt P43220); test: Functional cAMP formation (HTRF) in HEK-293 clonal cells expressing hGLP-1R, 0.1% bovine casein, without or with 1.0% human serum albumin; assay type: cell-based; design: expressed in transfected cells; settings: for Emax: percent of maximal response to GLP-1(7-36)NH2; for EC50: hGLP-1R EC50, nM (SEM, n), cAMP, 37° C.
Procedure, shortened: (§1)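 Cells were stimulated with peptide for 30 min at 37° C, then lysed in buffer carrying cAMP-d2 and anti-cAMP Eu3+-cryptate for a competitive HTRF read after at least 60 min at room temperature. The 665/620 nm ratio was converted to nM cAMP against a standard curve.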

[2] = molecular target: T1, human GIP receptor (hGIPR) (Homo sapiens, UniProt P48546); test: [125I]-GIP binding, SPA with membranes of CHO cells expressing hGIPR
T1 construct: expressed in transfected cells; crude membranes
T1 sequence (P48546 22-466): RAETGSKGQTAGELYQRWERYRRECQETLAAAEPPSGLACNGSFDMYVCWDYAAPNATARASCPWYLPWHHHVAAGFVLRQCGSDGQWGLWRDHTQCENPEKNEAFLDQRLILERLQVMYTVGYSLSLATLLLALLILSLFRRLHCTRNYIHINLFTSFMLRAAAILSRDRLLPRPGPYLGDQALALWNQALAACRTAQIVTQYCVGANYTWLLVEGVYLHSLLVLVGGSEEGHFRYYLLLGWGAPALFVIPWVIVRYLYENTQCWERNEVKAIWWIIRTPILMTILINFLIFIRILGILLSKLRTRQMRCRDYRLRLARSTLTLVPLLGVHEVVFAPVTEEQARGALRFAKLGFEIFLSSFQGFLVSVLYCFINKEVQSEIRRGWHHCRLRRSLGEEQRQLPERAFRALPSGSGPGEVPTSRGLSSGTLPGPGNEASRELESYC
Protocol: Two methods are used for the preparation of crude cell membranes.
Method 1: Frozen cell pellets are lysed on ice in hypotonic buffer containing 50 mM Tris HCl, pH 7.5, and Roche Complete™ Protease Inhibitors with EDTA. […] The homogenate is centrifuged at 4° C. at 1100 × g for 10 minutes. The supernatant is collected and stored on ice while the pellets are resuspended in homogenization buffer and rehomogenized as described above. The homogenate is centrifuged at 1100 × g for 10 minutes. The second supernatant is combined with the first supernatant and centrifuged at 35000 × g for 1 hour at 4° C. The resulting membrane pellet is resuspended in homogenization buffer containing protease inhibitors at approximately 1 to 3 mg/mL, quick frozen in liquid nitrogen and stored as aliquots in a -80° C. freezer until use.
The homogenate is centrifuged at 4° C. at 1800 × g for 15 minutes. The supernatant is collected and stored on ice while the pellets are resuspended in homogenization buffer (without DNAse I) and rehomogenized as described above. The homogenate is centrifuged at 1800 × g for 15 minutes. The second supernatant is combined with the first supernatant and centrifuged an additional time at 1800 × g for 15 minutes. The overall supernatant is then centrifuged at 25000 × g for 30 minutes at 4° C. The resulting membrane pellet is resuspended in homogenization buffer (without DNAse I) containing protease inhibitors at approximately 1 to 3 mg/mL and stored as aliquots in a -80° C. freezer until use.
The binding buffer contains 25 mM HEPES, pH 7.4, 2.5 mM CaCl2, 1 mM MgCl2, 0.1% (w/v) bacitracin, 0.003% (w/v) TWEEN®-20, and Roche Complete™ Protease Inhibitors without EDTA. Peptides and GIP are thawed and 3 fold serially diluted in 100% DMSO (10 point concentration response curves). […] Plates are sealed and mixed on a plate shaker (setting 6) for 1 minute and read with a PerkinElmer Trilux MicroBeta® scintillation counter after 2.5 to 12 hours of incubation/settling time at room temperature.
Raw CPM data for concentration curves of peptides, Gcg, GLP-1, or GIP are converted to percent inhibition by subtracting nonspecific binding (binding in the presence of excess unlabeled Gcg, GLP-1, or GIP, respectively) from the individual CPM values and dividing by the total binding signal, also corrected by subtracting nonspecific binding. Data are analyzed using four-parameter (curve maximum, curve minimum, IC50, Hill slope) nonlinear regression routines (Genedata Screener, version 12.0.4, Genedata AG, Basal, Switzerland). […] Values for Ki are reported as the geometric mean, with error expressed as the standard error of the mean (SEM) and n is equal to the number of independent replicates (determined in assays performed on different days). Geometric Means are calculated as follows: […]
The Ki Ratio (Ki for native control peptide/Ki for test compound) at each receptor and each species is calculated. The Ki Ratio is a rapid indication of the apparent affinity of a peptide compared to the native control peptide.
n=⅟x means that only one value out of the total number of replicates (x) is used to express the mean. SEM is only calculated when n=2 or greater non-qualified results exist. Means are expressed as GeoMetric means with the standard error of the mean (SEM) and the number of replicates (n) indicated in parenthesis.

[3] = molecular target: T2, hGCGR (Homo sapiens, UniProt P47871); test: Functional cAMP formation (HTRF) in HEK-293 clonal cells expressing hGCGR, 0.1% bovine casein, without or with 1.0% human serum albumin; assay type: cell-based; settings: hGCGR EC50, nM (SEM, n), cAMP, 37° C.
T2 construct: expressed in transfected cells
Procedure, shortened: as §1

[4] = molecular target: T3, hGIPR (Homo sapiens, UniProt P48546); test: Functional cAMP formation (HTRF) in HEK-293 clonal cells expressing hGIPR, 0.1% bovine casein, without or with 1.0% human serum albumin; assay type: cell-based; settings: for Emax: percent of maximal response to GIP(1-42)NH2; for EC50: hGIPR EC50, nM (SEM, n), cAMP, 37° C., 0.1% bovine casein (no human serum albumin), geometric mean
T3 construct: expressed in transfected cells
T3 sequence (P48546 22-466): T1 sequence (P48546 22-466)
Procedure, shortened: as §1

[5] = HEK293, read-out: hGLP-1R Emax, % ± SEM, cAMP, 37° C., 0.1% bovine casein, arithmetic mean
[6] = 0.1% bovine casein (no human serum albumin), geometric mean
[7] = 0.1% bovine casein and 1.0% human serum albumin, geometric mean (SEM, n)
[8] = HEK293, read-out: hGIPR Emax, % ± SEM, cAMP, 37° C., 0.1% bovine casein and 1.0% human serum albumin

T2 sequence (P47871 26-477): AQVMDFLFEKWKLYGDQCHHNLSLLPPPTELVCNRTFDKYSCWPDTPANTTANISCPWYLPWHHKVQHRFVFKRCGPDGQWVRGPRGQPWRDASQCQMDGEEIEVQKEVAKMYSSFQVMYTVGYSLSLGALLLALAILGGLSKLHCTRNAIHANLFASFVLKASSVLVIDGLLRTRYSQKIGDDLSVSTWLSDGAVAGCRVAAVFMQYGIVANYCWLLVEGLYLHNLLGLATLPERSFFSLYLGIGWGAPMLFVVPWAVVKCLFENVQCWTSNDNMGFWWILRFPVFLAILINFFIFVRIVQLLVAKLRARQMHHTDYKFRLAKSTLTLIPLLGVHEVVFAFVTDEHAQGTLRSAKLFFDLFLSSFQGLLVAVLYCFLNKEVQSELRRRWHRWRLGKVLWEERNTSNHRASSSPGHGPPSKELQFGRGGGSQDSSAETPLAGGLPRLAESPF
hGLP-1R, sequence (P43220 24-463): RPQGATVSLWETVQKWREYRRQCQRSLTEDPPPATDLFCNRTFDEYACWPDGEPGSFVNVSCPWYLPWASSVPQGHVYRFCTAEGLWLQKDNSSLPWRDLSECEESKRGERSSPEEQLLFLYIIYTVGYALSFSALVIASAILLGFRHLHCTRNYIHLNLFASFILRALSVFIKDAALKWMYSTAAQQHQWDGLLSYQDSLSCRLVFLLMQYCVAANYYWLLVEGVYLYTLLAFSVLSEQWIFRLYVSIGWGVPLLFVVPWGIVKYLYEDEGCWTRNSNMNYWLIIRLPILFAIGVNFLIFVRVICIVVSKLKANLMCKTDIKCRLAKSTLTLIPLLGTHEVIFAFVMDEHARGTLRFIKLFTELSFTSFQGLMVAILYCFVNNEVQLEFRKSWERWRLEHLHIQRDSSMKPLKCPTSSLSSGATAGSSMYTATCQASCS

| SMILES | Emax ([1]; HEK293, read-out: hGLP-1R Emax, % ± SEM, cAMP, 37° C., 0.1% bovine casein and 1.0% human serum albumin) [%] | Emax [1, 5] [%] | EC50 [1, 6] [nM] | EC50 [1, 7] [nM] | Ki [2] [nM] | EC50 [3, 6] [nM] | EC50 [3, 7] [nM] | Emax [4, 8] [%] | Emax ([4]; HEK293, read-out: hGIPR Emax, % ± SEM, cAMP, 37° C., 0.1% bovine casein, arithmetic mean) [%] | EC50 [4] [nM] |
| --- | --- | --- | --- | --- | --- | --- | --- | --- | --- | --- |
| CC[C@H](C)[C@H](NC(=O)[C@H](CCCN)NC(=O)[C@H](CC(=O)O)NC(=O)[C@H](CC(C)C)NC(=O)[C@](C)(CC(C)C)NC(=O)[C@@H](NC(=O)C(C)(C)NC(=O)[C@H](Cc1ccc(O)cc1)NC(=O)[C@H](CC(=O)O)NC(=O)[C@H](CO)NC(=O)[C@@H](NC(=O)[C@](C)(Cc1ccccc1F)NC(=O)[C@@H](NC(=O)CNC(=O)[C@H](CCC(=O)O)NC(=O)C(C)(C)NC(=O)[C@@H](N)Cc1ccc(O)cc1)[C@@H](C)O)[C@@H](C)O)[C@@H](C)CC)C(=O)N[C@@H](C)C(=O)N[C@@H](CCC(N)=O)C(=O)NC(C)(C)C(=O)N[C@@H](CCCN)C(=O)N[C@@H](Cc1ccccc1)C(=O)N[C@H](C(=O)N[C@@H](CCCCNC(=O)COCCOCCNC(=O)COCCOCCNC(=O)COCCOCCNC(=O)CC[C@H](NC(=O)CCCCCCCCCOc1ccc(C(=O)O)cc1)C(=O)O)C(=O)N[C@@](C)(Cc1ccc(O)cc1)C(=O)N[C@@H](CC(C)C)C(=O)N[C@H](C(=O)N[C@@H](CCCCNC(=O)COCCOCCNC(=O)COCCOCCNC(=O)COCCOCCNC(=O)CC[C@H](NC(=O)CCCCCCCCCOc1ccc(C(=O)O)cc1)C(=O)O)C(=O)NCC(=O)NCC(=O)N1CCC[C@H]1C(=O)N[C@@H](CO)C(=O)N[C@@H](CO)C(=O)NCC(=O)N[C@@H](C)C(=O)N1CCC[C@H]1C(=O)N1CCC[C@H]1C(=O)N1CCC[C@H]1C(=O)N[C@@H](CO)C(N)=O)[C@@H](C)CC)[C@@H](C)CC [Example 481] | 112 | 111 | 0.279 | 6.16 | 0.0266 | > 9950 | > 9950 | 82.7 | 97.9 | 0.0181 |
| CC[C@H](C)[C@H](NC(=O)[C@H](CC(C)C)NC(=O)[C@](C)(Cc1ccc(O)cc1)NC(=O)[C@H](CCCCNC(=O)CCCCCNC(=O)COCCOCCNC(=O)CC[C@H](NC(=O)CCCCCCCCCOc1ccc(C(=O)O)cc1)C(=O)O)NC(=O)[C@@H](NC(=O)[C@H](Cc1ccccc1)NC(=O)[C@H](CCCN)NC(=O)C(C)(C)NC(=O)[C@H](CCC(N)=O)NC(=O)[C@H](C)NC(=O)[C@H](CCC(N)=O)NC(=O)[C@H](CCCN)NC(=O)[C@H](CC(=O)O)NC(=O)[C@H](CC(C)C)NC(=O)[C@](C)(CC(C)C)NC(=O)[C@@H](NC(=O)C(C)(C)NC(=O)[C@H](Cc1ccncc1)NC(=O)[C@H](CC(=O)O)NC(=O)[C@H](CO)NC(=O)[C@@H](NC(=O)[C@](C)(Cc1ccccc1F)NC(=O)[C@@H](NC(=O)CNC(=O)[C@H](CCC(=O)O)NC(=O)C(C)(C)NC(=O)[C@@H](N)Cc1ccc(O)cc1)[C@@H](C)O)[C@@H](C)O)[C@@H](C)CC)[C@@H](C)CC)C(=O)N[C@@H](CCCCNC(=O)CCCCCNC(=O)COCCOCCNC(=O)CC[C@H](NC(=O)CCCCCCCCCOc1ccc(C(=O)O)cc1)C(=O)O)C(=O)NCC(=O)NCC(=O)N1CCC[C@H]1C(=O)N[C@@H](CO)C(=O)N[C@@H](CO)C(=O)NCC(=O)N[C@@H](C)C(=O)N1CCC[C@H]1C(=O)N1CCC[C@H]1C(=O)N1CCC[C@H]1C(=O)N[C@@H](CO)C(N)=O [Example 455] | – | 117 | 0.219 | – | 0.0143 | > 9950 | > 9950 | 91.8 | – | 0.0146 |
| CC[C@H](C)[C@H](NC(=O)[C@H](CC(C)C)NC(=O)[C@](C)(Cc1ccc(O)cc1)NC(=O)[C@H](CCCCNC(=O)COCCOCCNC(=O)COCCOCCNC(=O)COCCOCCNC(=O)CC[C@H](NC(=O)CCCCCCCCCOc1ccc(C(=O)O)cc1)C(=O)O)NC(=O)[C@@H](NC(=O)[C@H](Cc1ccccc1)NC(=O)[C@H](CCC(=O)O)NC(=O)C(C)(C)NC(=O)[C@H](CCC(N)=O)NC(=O)[C@H](C)NC(=O)[C@H](CCC(N)=O)NC(=O)[C@H](CCCN)NC(=O)[C@H](CC(=O)O)NC(=O)[C@H](CC(C)C)NC(=O)[C@](C)(CC(C)C)NC(=O)[C@@H](NC(=O)C(C)(C)NC(=O)[C@H](Cc1ccncc1)NC(=O)[C@H](CC(=O)O)NC(=O)[C@H](CO)NC(=O)[C@@H](NC(=O)[C@](C)(Cc1ccccc1F)NC(=O)[C@@H](NC(=O)CNC(=O)[C@H](CCC(=O)O)NC(=O)C(C)(C)NC(=O)[C@@H](N)Cc1ccc(O)cc1)[C@@H](C)O)[C@@H](C)O)[C@@H](C)CC)[C@@H](C)CC)C(=O)N[C@@H](CCCCNC(=O)COCCOCCNC(=O)COCCOCCNC(=O)COCCOCCNC(=O)CC[C@H](NC(=O)CCCCCCCCCOc1ccc(C(=O)O)cc1)C(=O)O)C(=O)NCC(=O)NCC(=O)N1CCC[C@H]1C(=O)N[C@@H](CO)C(=O)N[C@@H](CO)C(=O)NCC(=O)N[C@@H](C)C(=O)N1CCC[C@H]1C(=O)N1CCC[C@H]1C(=O)N1CCC[C@H]1C(=O)N[C@@H](CO)C(N)=O [Example 464] | – | 114 | 0.161 | – | 0.0261 | > 10100 | > 10100 | 95.5 | – | 0.00955 |
